The conditions of the data set: Crystal 2; DSC.

± gives the expanded uncertainty stated by the source.

As for `[Ag+].[S-2].[S-2].[Sb+3]` [antimony(III) silver(I) sulfide], the Triple point temperature is listed as 648.6 ± 2.1 K.

The values are drawn from the NIST ThermoML archive (doi:10.1016/j.jct.2016.03.009).
